Active and inactive are the calls of the source. No cut-off for these calls is given here.
Legend:
[1] = Metabolic stability in human liver microsomes assessed as intrinsic clearance measured upto 60 mins in presence of NADPH by LC/MS-MS analysis; type: ADME, Microsome; conditions: read-out: CLH
[2] = Metabolic stability in mouse liver microsomes assessed as intrinsic clearance measured upto 60 mins in presence of NADPH by LC/MS-MS analysis; type: ADME, Microsome; conditions: read-out: CLH
MM1.S [3] = experiment: Inhibition of CRM1 protein expression in human MM1.S cells at 0.25 to 1.25 uM by Western blot analysis; type: functional, cell-based; conditions: dose 0.25-1.25 µM, time 2-24 hrs
[4] = AUC (0 to t) in male Sprague-Dawley rat at 30 mg/kg, po measured upto 30 hrs by LC-MS/MS analysis; type: ADME, organism-based; conditions: in vivo
[5] = Toxicity in NOD-SCID mouse assessed as reduction in intact nuclei in tumor at 60 mg/kg, po measured every 2 days for 21 days by H and E staining based analysis; type: organism-based; conditions: in vivo, 504 h, time 21 day
[6] = AUC in male Sprague-Dawley rat brain at 10 mg/kg, IG measured at 6 hrs by LC-MS/MS analysis; type: ADME, organism-based; conditions: po
[7] = Toxicity in NOD-SCID mouse assessed as shortening of villi in intestine at 15 to 60 mg/kg, po measured every 2 days for 21 days by H and E staining based analysis; type: organism-based; conditions: in vivo, 504 h, dose 15-60 mg/kg, time 21 day
[8] = AUC (0 to infinity) in male Sprague-Dawley rat at 2 mg/kg, iv measured upto 30 hrs by LC-MS/MS analysis; type: ADME, organism-based; conditions: in vivo
BXPC-3 = experiment: Antiproliferative activity against human BXPC-3 cells assessed as inhibition of cell growth incubated for 72 hrs by celltiter-glo assay; type: functional, cell-based; conditions: BXPC-3, 72 h
[9] = Cmax in male Sprague-Dawley rat plasma at 10 mg/kg, IG measured at 6 hrs by LC-MS/MS analysis; type: ADME, organism-based; conditions: po
MM1.S [10] = experiment: Antitumor activity against human MM1.S cells xenografted in NOD-SCID mouse assessed as tumor growth inhibition at 30 mg/kg, po qd measured upto 21 days; type: functional; conditions: 504 h, time <= 21 day, read-out: TGI
[11] = Half life in male Sprague-Dawley rat at 30 mg/kg, po measured upto 30 hrs by LC-MS/MS analysis; type: ADME, organism-based; conditions: in vivo
MM1.S [12] = experiment: Inhibition of CRM1 protein expression in human MM1.S cells by Western blot analysis; type: functional, cell-based; conditions: dose 0.25-1.25 µM
[13] = Metabolic stability in dog liver microsomes assessed as intrinsic clearance measured upto 60 mins in presence of NADPH by LC/MS-MS analysis; type: ADME, Canis lupus familiaris, Microsome; conditions: read-out: CLH
[14] = Toxicity in NOD-SCID mouse assessed as appearance of spindle shape in tumor at 60 mg/kg, po measured every 2 days for 21 days by H and E staining based analysis; type: organism-based; conditions: in vivo, 504 h, time 21 day
ARH-77 = experiment: Antitumor activity against human ARH-77 cells xenografted in NOD-SCID mouse at 15 to 60 mg/kg, po measured every 2 days for 21 days; type: functional, organism-based; conditions: dose 15-60 mg/kg, time 21.0 day
[15] = Oral bioavailability in male Sprague-Dawley rat at 10 mg/kg measured upto 30 hrs by LC-MS/MS analysis; type: ADME, organism-based; conditions: in vivo
KMS-11 = experiment: Antiproliferative activity against human KMS-11 cells assessed as inhibition of cell growth incubated for 72 hrs by celltiter-glo assay; type: functional, cell-based; conditions: KMS-11, 72 h
[16] = AUC (0 to infinity) in male Sprague-Dawley rat at 10 mg/kg, po measured upto 30 hrs by LC-MS/MS analysis; type: ADME, organism-based; conditions: in vivo
MM1.S [17] = experiment: Induction of apoptosis in human MM1.S cells assessed as increase in FOXO3A signal intensity; type: functional, cell-based
HCT-116 [18] = experiment: Antiproliferative activity against human HCT-116 cells assessed as inhibition of cell growth incubated for 72 hrs by celltiter-glo assay; type: functional, cell-based; conditions: HCT-116, 72 h
[19] = Metabolic stability in monkey liver microsomes assessed as half life measured upto 60 mins in presence of NADPH by LC/MS-MS analysis; type: ADME, Macaca mulatta, Microsome; conditions: rhesus monkey
MM1.S [20] = experiment: Antitumor activity against human MM1.S cells xenografted in NOD-SCID mouse assessed as tumor growth inhibition at 60 mg/kg, po qd measured upto 21 days; type: functional; conditions: 504 h, time <= 21 day, read-out: TGI
MM1.S [21] = experiment: Induction of apoptosis in human MM1.S cells assessed as increase in cleaved caspase level at 0.5 to 1 uM incubated for 48 hrs by Western blot analysis; type: functional, cell-based; conditions: dose 0.5-1 µM
[22] = Metabolic stability in rat liver microsomes assessed as intrinsic clearance measured upto 60 mins in presence of NADPH by LC/MS-MS analysis; type: ADME, Microsome; conditions: read-out: CLH
[23] = Toxicity in NOD-SCID mouse assessed as reduction in cell density in tumor at 60 mg/kg, po measured every 2 days for 21 days by H and E staining based analysis; type: organism-based; conditions: in vivo, 504 h, time 21 day
HCT-116 [24] = experiment: Antitumor activity against human HCT-116 cells xenografted in NOD-SCID mouse assessed as tumor growth inhibition at 60 mg/kg, po measured every 2 days for 21 days; type: functional, organism-based; conditions: time 21.0 day
[25] = molecular target: Exportin-1 (Homo sapiens) (UniProt O14980); experiment: Inhibition of CRM1 in human MM1.S cells assessed as accumulation of IkappaB protein level at 0.5 to 1 uM incubated for 24 hrs by Western blot analysis; type: cell-based; conditions: dose 0.5-1 µM
[26] = AUC (0 to infinity) in male Sprague-Dawley rat at 15 mg/kg, po measured upto 30 hrs by LC-MS/MS analysis; type: ADME, organism-based; conditions: in vivo
[27] = Toxicity in NOD-SCID mouse assessed as reduction in number of tumor cells at 60 mg/kg, po measured every 2 days for 21 days by H and E staining based analysis; type: organism-based; conditions: in vivo, 504 h, time 21 day
[28] = AUC (0 to infinity) in male Sprague-Dawley rat at 30 mg/kg, po measured upto 30 hrs by LC-MS/MS analysis; type: ADME, organism-based; conditions: in vivo
[29] = Cmax in male Sprague-Dawley rat at 30 mg/kg, po measured upto 30 hrs by LC-MS/MS analysis; type: ADME, organism-based; conditions: in vivo
MM1.S [30] = experiment: Induction of apoptosis in human MM1.S cells assessed as increase in p53 level at 0.5 to 1 uM incubated for 48 hrs by Western blot analysis; type: functional, cell-based; conditions: dose 0.5-1 µM
[31] = molecular target: Exportin-1 (Homo sapiens) (UniProt O14980); experiment: Reversible binding affinity to CRM1 in human U2OS cells incubated for 4 hrs by DAPI staining based fluorescence microscopic analysis; type: cell-based
[32] = Tmax in male Sprague-Dawley rat at 15 mg/kg, po measured upto 30 hrs by LC-MS/MS analysis; type: ADME, organism-based; conditions: in vivo
[33] = molecular target: Exportin-1 (Homo sapiens) (UniProt O14980); experiment: Competitive inhibition of human recombinant CRM1 at 2 uM incubated for 2 hrs in presence of 3-(1-((E)-3-(methoxyamino)-3-oxo-2-(pyrimidin-5-yl)prop-1-en-1-yl)-1H-1,2,4-triazol-3-yl)-5-(trifluoromethyl)phenyl 3-(5-((3aS,4S,6aR)-2-oxohexahydro-1H-thieno[3,4-d]imidazol-4-yl)pentanamido)propanoate by pull down based Western blot analysis
[34] = Cmax in male Sprague-Dawley rat at 15 mg/kg, po measured upto 30 hrs by LC-MS/MS analysis; type: ADME, organism-based; conditions: in vivo
[35] = molecular target: Ran-specific GTPase-activating protein (Homo sapiens, UniProt P43487); experiment: Inhibition of RANBP1 nuclear export in human U2OS cells assessed as increase in fluorescence intensity at 100 uM measured for 15 mins by DAPI staining based fluorescence microscopic analysis; type: cell-based
Ran-specific GTPase-activating protein, sequence (P43487 whole entry): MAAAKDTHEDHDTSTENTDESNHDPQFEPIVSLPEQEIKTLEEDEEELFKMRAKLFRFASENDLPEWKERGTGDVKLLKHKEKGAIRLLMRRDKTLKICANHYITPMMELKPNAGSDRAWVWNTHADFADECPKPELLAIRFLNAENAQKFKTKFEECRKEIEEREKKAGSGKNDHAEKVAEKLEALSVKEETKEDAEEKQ

Exportin-1 (Homo sapiens), sequence (O14980 whole entry): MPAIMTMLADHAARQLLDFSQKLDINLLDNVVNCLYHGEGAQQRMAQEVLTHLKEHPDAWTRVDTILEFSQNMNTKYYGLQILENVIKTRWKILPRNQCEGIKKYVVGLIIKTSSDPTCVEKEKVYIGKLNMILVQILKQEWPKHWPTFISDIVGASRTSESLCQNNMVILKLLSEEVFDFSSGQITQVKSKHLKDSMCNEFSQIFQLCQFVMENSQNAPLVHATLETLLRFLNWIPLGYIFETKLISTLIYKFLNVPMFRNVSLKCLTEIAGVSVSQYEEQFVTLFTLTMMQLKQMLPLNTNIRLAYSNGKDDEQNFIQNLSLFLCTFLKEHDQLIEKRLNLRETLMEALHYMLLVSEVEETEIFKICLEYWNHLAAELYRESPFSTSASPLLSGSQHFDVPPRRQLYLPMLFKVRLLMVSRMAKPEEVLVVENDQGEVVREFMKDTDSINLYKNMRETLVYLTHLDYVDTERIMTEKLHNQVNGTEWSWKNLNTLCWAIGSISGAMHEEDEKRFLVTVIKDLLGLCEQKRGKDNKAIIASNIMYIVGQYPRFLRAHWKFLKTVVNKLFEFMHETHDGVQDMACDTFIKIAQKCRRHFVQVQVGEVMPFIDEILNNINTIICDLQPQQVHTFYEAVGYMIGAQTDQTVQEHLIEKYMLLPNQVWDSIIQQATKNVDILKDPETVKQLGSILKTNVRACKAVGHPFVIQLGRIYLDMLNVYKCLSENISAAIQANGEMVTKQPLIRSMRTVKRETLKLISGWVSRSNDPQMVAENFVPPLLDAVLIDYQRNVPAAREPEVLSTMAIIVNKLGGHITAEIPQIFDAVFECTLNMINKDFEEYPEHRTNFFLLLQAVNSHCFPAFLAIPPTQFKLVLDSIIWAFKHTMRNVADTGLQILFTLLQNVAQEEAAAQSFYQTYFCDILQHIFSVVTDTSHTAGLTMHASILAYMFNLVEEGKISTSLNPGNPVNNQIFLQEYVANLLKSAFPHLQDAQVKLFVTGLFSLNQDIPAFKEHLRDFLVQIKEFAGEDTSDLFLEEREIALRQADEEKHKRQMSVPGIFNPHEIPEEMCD

SMILES: CONC(=O)/C(=C/n1cnc(-c2cc(C(F)(F)F)cc(C(F)(F)F)c2)n1)c1cncnc1
- microsomal CLint [1]: 3.6 µL/min/mg
- microsomal CLint [2]: 12.6 µL/min/mg
- inhibition (MM1.S [3]): Time-dependent-effect
- AUC(0-t) at 30 h [4]: 9000 ng·h/mL
- Activity [5]: Non-toxic
- AUC at 6 h [6]: 378 ng·h/mL
- Activity [7]: Non-toxic
- AUC(0-inf) [8]: 1490 ng·h/mL
- IC50 (BXPC-3): 3180 nM
- Cmax [9]: 18.9 ng/mL
- inhibition in vivo at 30 mg/kg (MM1.S [10]): 86.6%
- half-life [11]: 3.6 h
- inhibition (MM1.S [12]): Dose-dependent-effect
- microsomal CLint [13]: 2.6 µL/min/mg
- Activity [14]: Non-toxic
- Activity (ARH-77): Active
- bioavailability [15]: 56%
- IC50 (KMS-11): 739 nM
- AUC(0-inf) [16]: 4180 ng·h/mL
- Activity (MM1.S [17]): Active
- IC50 (HCT-116 [18]): 435 nM
- half-life [19]: > 2 h
- inhibition in vivo at 60 mg/kg (MM1.S [20]): 87%
- Activity (MM1.S [21]): Active
- microsomal CLint [22]: 7.2 µL/min/mg
- Activity [23]: Non-toxic
- TGI (HCT-116 [24]): Active
- Activity [25]: Active
- AUC(0-inf) [26]: 5830 ng·h/mL
- Activity [27]: Non-toxic
- AUC(0-inf) [28]: 10400 ng·h/mL
- Cmax [29]: 844 ng/mL
- Activity (MM1.S [30]): Active
- Activity [31]: Active
- Tmax [32]: 0.25 h
- inhibition [33]: Active
- Cmax [34]: 793 ng/mL
- inhibition [35]: Active

Reference: ChEMBL document CHEMBL6083277, “Discovery of SZJK-0421: A Novel Potent, Low Toxicity, Selective Second Generation of CRM1 Inhibitor for the Treatment of Both Hematological and Solid Tumors” (J Med Chem, 2024)
